Data: DBAASP
In brackets after ≈: the same amount, converted by molar mass. Several values for one entry are separate records, joined by “and”; a condition that tells them apart may be missing. Equal entries are not always repeated. Blank lines part the entries; values can stand above or below the compound they belong to.

Experiments:
Experiment in all cases: ≥ marks a high value that may be exact or a test limit, other limits are often not marked, values filed in µg/mL are converted to µM
[1] = tested on: Pseudomonas aeruginosa H744
[2] = tested on: Pseudomonas aeruginosa H374
[3] = tested on: Salmonella enterica subsp. enterica serovar Typhimurium ATCC 14028s
Escherichia coli UB1005 = tested on: Escherichia coli UB1005
[4] = tested on: Pseudomonas aeruginosa Z61
[5] = tested on: Pseudomonas aeruginosa K799
[6] = tested on: Pseudomonas aeruginosa H547
[7] = tested on: Staphylococcus carnosus KHS
[8] = tested on: Rhodococcus rhodochrous X15
[9] = tested on: Escherichia coli ATCC 25922
[10] = tested on: Psychrobacter faecalis X29
Serratia rubidaea X01 = tested on: Serratia rubidaea X01
[11] = tested on: Staphylococcus aureus ATCC 2592
[12] = tested on: Bacillus licheniformis X39
Escherichia coli 804 = tested on: Escherichia coli 804
Staphylococcus aureus 75 = tested on: Staphylococcus aureus 75
[13] = tested on: Pseudomonas aeruginosa 73
[14] = tested on: Staphylococcus epidermidis ATCC 12228
[15] = tested on: Acinetobacter baumannii ATCC 19606
[16] = tested on: Staphylococcus aureus ATCC 29213
[17] = tested on: Staphylococcus aureus 113
[18] = tested on: Pseudomonas aeruginosa ATCC 9027
[19] = tested on: Staphylococcus aureus ATCC 25923
[20] = tested on: Klebsiella pneumoniae ATCC 700603
[21] = tested on: Pseudomonas aeruginosa 50
[22] = tested on: Acinetobacter baumannii 9931
[23] = tested on: Pseudomonas aeruginosa ATCC 27853
[24] = tested on: Acinetobacter baumannii 97830
Escherichia coli 780 = tested on: Escherichia coli 780
[25] = tested on: Bacillus subtilis ATCC 23857
[26] = tested on: Zymomonas mobilis ATCC 10988
[27] = tested on: Pseudomonas aeruginosa PAO1
[28] = tested on: Escherichia coli DH5alpha
Candida parapsilosis = tested on: Candida parapsilosis
Bacillus subtilis DELTA = tested on: Bacillus subtilis DELTA
Escherichia coli DC2 = tested on: Escherichia coli DC2
Escherichia coli BL21AI = tested on: Escherichia coli BL21AI
[29] = tested on: Bacillus subtilis DSM 347
[30] = tested on: Escherichia coli DSM 1103
[31] = tested on: Klebsiella pneumoniae DSM 681
[32] = tested on: Micrococcus luteus ATCC 10240

SMILES: CC[C@H](C)[C@H](NC(=O)[C@H](CC(C)C)NC(=O)[C@@H]1CCCN1C(=O)[C@H](CCCCN)NC(=O)[C@H](C)NC(=O)[C@@H](NC(=O)[C@@H](NC(=O)[C@H](CC(C)C)NC(=O)[C@@H](NC(=O)[C@H](CO)NC(=O)[C@@H](NC(=O)[C@H](CCCCN)NC(=O)[C@H](C)NC(=O)[C@H](CO)NC(=O)[C@@H](NC(=O)[C@H](CC(C)C)NC(=O)[C@H](CC(C)C)NC(=O)[C@H](CCCCN)NC(=O)[C@@H](NC(=O)[C@H](Cc1ccccc1)NC(=O)[C@H](CO)NC(=O)[C@H](CCCCN)NC(=O)[C@H](CCCCN)NC(=O)[C@@H](N)CCCCN)[C@@H](C)CC)[C@@H](C)O)C(C)C)C(C)C)[C@@H](C)O)[C@@H](C)O)C(=O)N[C@@H](CO)C(=O)N[C@@H](CO)C(=O)O [KKKSFIKLLTSAKVSVLTTAKPLISS]
MIC [1]: 22.9 µM (≈ 64 µg/mL)
MIC [2]: 22.9 µM (≈ 64 µg/mL)
MIC [3]: 22.9 µM (≈ 64 µg/mL)
MIC (Escherichia coli UB1005): 11.5 µM (≈ 32 µg/mL)
MIC [4]: 22.9 µM (≈ 64 µg/mL)
MIC [5]: 22.9 µM (≈ 64 µg/mL)
MIC [6]: 22.9 µM (≈ 64 µg/mL)

SMILES: NCC(=O)N[C@@H](CCCN=C(N)N)C(=O)N[C@@H](Cc1c[nH]c2ccccc12)C(=O)N[C@@H](Cc1c[nH]c2ccccc12)C(=O)N[C@@H](Cc1c[nH]c2ccccc12)C(=O)N[C@@H](CCCN=C(N)N)C(=O)NCC(N)=O [GRWWWRG]
MIC (Escherichia coli 804): ≥ 128 µM
MIC (Staphylococcus aureus 75): ≥ 64 µM
MIC [13]: ≥ 128 µM
MIC [14]: 64 µM (≈ 64.1 µg/mL)
MIC [15]: > 128 µM
MIC [16]: 8 µM (≈ 8.02 µg/mL)
MIC [9]: > 128 µM
MIC [17]: ≥ 64 µM
MIC [18]: > 128 µM
MIC [19]: 64 µM and 128 µM
MIC [20]: > 128 µM
MIC [21]: ≥ 128 µM
MIC [22]: ≥ 128 µM
MIC [23]: > 128 µM
MIC [24]: ≥ 128 µM
MIC (Escherichia coli 780): ≥ 128 µM
MIC [25]: 16 µM (≈ 16 µg/mL)

SMILES: CC[C@H](C)[C@H](NC(=O)[C@H](CCCCN)NC(=O)[C@H](CC(C)C)NC(=O)[C@H](CC(C)C)NC(=O)CN)C(=O)N[C@H](C(=O)N[C@@H](CCCCN)C(=O)N[C@@H](CCCCN)C(=O)N[C@@H](CC(C)C)C(=O)N[C@@H](CC(C)C)C(N)=O)[C@@H](C)CC [GLLKIIKKLL]
MIC [26]: 13.2 µM (≈ 15 µg/mL)
MIC [27]: 2.63 µM (≈ 3 µg/mL)
MIC [28]: ≥ 87.8 µM
MIC (Candida parapsilosis): 6.15 µM (≈ 6.99 µg/mL)
MIC (Bacillus subtilis DELTA): 6.15 µM (≈ 6.99 µg/mL)

SMILES: CC[C@H](C)[C@H](NC(=O)[C@H](Cc1ccc(O)cc1)NC(=O)[C@@H](NC(=O)[C@@H]1CCCN1C(=O)[C@H](CCCCN)NC(=O)[C@H](CC(N)=O)NC(=O)[C@H](CC(N)=O)NC(=O)CN)C(C)C)C(=O)N1CCC[C@H]1C(=O)N[C@@H](CCCN=C(N)N)C(=O)N1CCC[C@H]1C(=O)N[C@@H](CCCN=C(N)N)C(=O)N1CCC[C@H]1C(=O)N1CCC[C@H]1C(=O)N[C@@H](Cc1cnc[nH]1)C(=O)N1CCC[C@H]1C(=O)N[C@@H](CCCN=C(N)N)C(=O)N[C@@H](CC(C)C)C(=O)N[C@H](C(N)=O)C(C)C [GNNKPVYIPRPRPPHPRLV]
MIC (Escherichia coli DC2): 3.54 µM (≈ 7.81 µg/mL)
MIC (Escherichia coli BL21AI): 3.54 µM (≈ 7.81 µg/mL)
MIC [29]: ≥ 56.6 µM
MIC [30]: 1.77 µM (≈ 3.9 µg/mL)
MIC [31]: 14.2 µM (≈ 31.2 µg/mL)
MIC [32]: 0.109 µM (≈ 0.24 µg/mL)

Further lines, results first:

MIC [7]: 1.3 µM (≈ 6.54 µg/mL)
MIC [8]: 0.3 µM (≈ 1.51 µg/mL)
MIC [9]: 5 µM (≈ 25.1 µg/mL)
MIC [10]: 0.6 µM (≈ 3.02 µg/mL)
MIC (Serratia rubidaea X01): 10 µM (≈ 50.3 µg/mL)
MIC [11]: 0.6 µM (≈ 3.02 µg/mL)
MIC [12]: 10 µM (≈ 50.3 µg/mL)
SMILES: CC[C@H](C)[C@H](NC(=O)CNC(=O)[C@H](CCCCN)NC(=O)[C@@H](NC(=O)[C@H](CC(C)C)NC(=O)CNC(=O)[C@H](CC(N)=O)NC(=O)[C@H](CCCCN)NC(=O)[C@@H](NC(=O)[C@H](Cc1c[nH]c2ccccc12)NC(=O)[C@H](CO)NC(=O)CNC(=O)[C@H](CCCCN)NC(=O)CNC(=O)[C@H](CCCCN)NC(=O)[C@H](CCCCN)NC(=O)[C@H](Cc1ccccc1)NC(=O)[C@H](CO)NC(=O)[C@@H](NC(=O)[C@@H](N)CCCN=C(N)N)[C@@H](C)CC)[C@@H](C)CC)[C@@H](C)CC)C(=O)N[C@@H](CCCCN)C(=O)NCC(=O)N[C@@H](CC(C)C)C(=O)NCC(=O)N[C@@H](CCCCN)C(=O)N[C@@H](CCC(=O)O)C(=O)N[C@H](C(=O)N[C@@H](CO)C(=O)N[C@@H](CC(C)C)C(=O)N[C@@H](CC(=O)O)C(=O)N[C@H](C(=O)N[C@H](C(=O)N[C@@H](CCCN=C(N)N)C(=O)N[C@H](C(=O)NCC(=O)N[C@H](C(=O)N[C@@H](CC(=O)O)C(=O)N[C@H](C(=O)N[C@@H](C)C(=O)NCC(=O)N[C@H]1CSSC[C@@H](C(=O)O)NC(=O)[C@H](CCC(=O)O)NC(=O)CNC(=O)[C@H](CCCCN)NC(=O)[C@H]([C@@H](C)CC)NC(=O)[C@H](CCCCN)NC1=O)[C@@H](C)CC)[C@@H](C)CC)[C@@H](C)O)[C@@H](C)CC)C(C)C)[C@@H](C)CC [RISFKKGKGSWIKNGLIKGIKGLGKEISLDVIRTGIDIAGCKIKGEC]

MIC (Escherichia coli 804): ≥ 64 µM
MIC (Staphylococcus aureus 75): ≥ 32 µM
MIC [13]: ≥ 128 µM
MIC [14]: 8 µM (≈ 8.69 µg/mL)
MIC [15]: 128 µM (≈ 139 µg/mL)
MIC [16]: 32 µM (≈ 34.8 µg/mL)
MIC [17]: ≥ 32 µM
MIC [18]: 64 µM (≈ 69.5 µg/mL)
MIC [20]: 64 µM (≈ 69.5 µg/mL)
MIC [21]: ≥ 64 µM
MIC [22]: ≥ 128 µM
MIC [23]: 64 µM (≈ 69.5 µg/mL)
MIC [24]: ≥ 128 µM
MIC (Escherichia coli 780): ≥ 64 µM
MIC [25]: 8 µM (≈ 8.69 µg/mL)
SMILES: CC(C)[C@H](N)C(=O)N[C@@H](CCCN=C(N)N)C(=O)N[C@@H](Cc1c[nH]c2ccccc12)C(=O)N[C@@H](Cc1c[nH]c2ccccc12)C(=O)N[C@@H](Cc1c[nH]c2ccccc12)C(=O)N[C@@H](CCCN=C(N)N)C(=O)N[C@H](C(N)=O)C(C)C [VRWWWRV]

MIC [1]: 5.71 µM (≈ 16 µg/mL)
MIC [2]: 2.85 µM (≈ 8 µg/mL)
MIC [3]: 15.3 µM (≈ 43 µg/mL)
MIC (Escherichia coli UB1005): 1.43 µM (≈ 4 µg/mL)
MIC [4]: 11.4 µM (≈ 32 µg/mL)
MIC [5]: 22.8 µM (≈ 64 µg/mL)
MIC [6]: 11.4 µM (≈ 32 µg/mL)
SMILES: CC[C@H](C)[C@H](NC(=O)[C@H](CC(C)C)NC(=O)[C@H](C)NC(=O)[C@@H]1CCCN1C(=O)[C@H](CC(C)C)NC(=O)CNC(=O)[C@@H](NC(=O)[C@@H](NC(=O)[C@H](CC(C)C)NC(=O)[C@@H](NC(=O)[C@H](CCCCN)NC(=O)[C@H](CO)NC(=O)CNC(=O)CNC(=O)[C@H](CCCCN)NC(=O)[C@@H](NC(=O)[C@H](CC(C)C)NC(=O)[C@H](CC(N)=O)NC(=O)[C@H](CCCCN)NC(=O)[C@@H](NC(=O)[C@H](Cc1ccccc1)NC(=O)[C@H](CO)NC(=O)[C@H](CCCCN)NC(=O)[C@H](Cc1c[nH]c2ccccc12)NC(=O)[C@@H](N)CCCCN)[C@@H](C)CC)[C@@H](C)O)[C@@H](C)CC)[C@@H](C)O)[C@@H](C)O)C(=O)N[C@@H](CO)C(=O)O [KWKSFIKNLTKGGSKILTTGLPALIS]
